Reference: patent US20080292619A1, “Pharmaceutical Composition Containing Meltrin Antagonist” (MOCHIDA PHARMACEUTICAL CO., LTD., priority 2004, published 2008)
In the oligonucleotide strings, read from the 5' end, every base follows the letter of its sugar. An asterisk marks phosphorothioate; unmarked linkages are phosphodiester. Other units and linkages are bracketed, terminal groups are in braces. A string of capitals states the bases alone. d = 2'-deoxy (DNA)

test system: human meltrin α RNA; test: Suppression of human meltrin α expression by antisense compound in RD cell (real time PCR); assay type: cell-based; conditions: 50 nM; RD cell; corrected by GAPDH
Summary of the method: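 RD cells transfected with heat-denatured antisense oligodeoxynucleotide plus Lipofectin in Opti-MEM for 4 h at 37° C, then cultured 18 h. Meltrin α RNA quantified by TaqMan RT-PCR against plasmid standard curve, GAPDH-corrected; suppression vs untreated cells, rated +/++/+++ for ≥30/50/70%.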

Substance | suppression rate of expression, 50 nM
H144 + 14: agaggatctgcaggcagagg (AGAGGATCTGCAGGCAGAGG; antisense; DNA, all phosphorothioate, methylation of C not given here) | ++ (“++” when the suppression rate was at least 50%)
H132 + 19: gtgggtaggaatctggcggc (GTGGGTAGGAATCTGGCGGC; antisense; DNA, all phosphorothioate, methylation of C not given here) | + (“+” when the suppression rate was at least 30%)
H148 + 10: gggtgccaggcggagcccag (dG*dG*dG*dT*dG*dC*dC*dA*dG*dG*dC*dG*dG*dA*dG*dC*dC*dC*dA*dG; antisense) | ++ (“++” when the suppression rate was at least 50%)
H139 + 16: gctaggtgcacgtggggccc (GCTAGGTGCACGTGGGGCCC; antisense; DNA, all phosphorothioate, methylation of C not given here) | ++ (“++” when the suppression rate was at least 50%)
H143 + 10: tgaggggggtttggcttaca (TGAGGGGGGTTTGGCTTACA; antisense; DNA, all phosphorothioate, methylation of C not given here) | + (“+” when the suppression rate was at least 30%)
H139 + 11: gtgcacgtggggcccggtgg (GTGCACGTGGGGCCCGGTGG; antisense; DNA, all phosphorothioate, methylation of C not given here) | + (“+” when the suppression rate was at least 30%)
H139 + 10: tgcacgtggggcccggtgga (TGCACGTGGGGCCCGGTGGA; antisense; DNA, all phosphorothioate, methylation of C not given here) | + (“+” when the suppression rate was at least 30%)
H150 + 5: ggcacttggtgtggatattg (dG*dG*dC*dA*dC*dT*dT*dG*dG*dT*dG*dT*dG*dG*dA*dT*dA*dT*dT*dG; antisense) | + (“+” when the suppression rate was at least 30%)
H140: ggacgctaggtgcacgtggg (GGACGCTAGGTGCACGTGGG; antisense; DNA, all phosphorothioate, methylation of C not given here) | + (“+” when the suppression rate was at least 30%)
H144 + 11: ggatctgcaggcagaggctt (GGATCTGCAGGCAGAGGCTT; antisense; DNA, all phosphorothioate, methylation of C not given here) | ++ (“++” when the suppression rate was at least 50%)
H133: ggtgggtaggaatctggcgg (GGTGGGTAGGAATCTGGCGG; antisense; DNA, all phosphorothioate, methylation of C not given here) | +++ (“+++” when the suppression rate was at least 70%)
H143 + 9: gaggggggtttggcttacag (GAGGGGGGTTTGGCTTACAG; antisense; DNA, all phosphorothioate, methylation of C not given here) | + (“+” when the suppression rate was at least 30%)
H145: ctggccagaggatctgcagg (CTGGCCAGAGGATCTGCAGG; antisense; DNA, all phosphorothioate, methylation of C not given here) | +++ (“+++” when the suppression rate was at least 70%)
H145 + 10: ccgagttgttctggccagag (dC*dC*dG*dA*dG*dT*dT*dG*dT*dT*dC*dT*dG*dG*dC*dC*dA*dG*dA*dG; antisense) | ++ (“++” when the suppression rate was at least 50%)
H139 + 19: gacgctaggtgcacgtgggg (GACGCTAGGTGCACGTGGGG; antisense; DNA, all phosphorothioate, methylation of C not given here) | + (“+” when the suppression rate was at least 30%)
H148: cggagcccagtctcccattg (dC*dG*dG*dA*dG*dC*dC*dC*dA*dG*dT*dC*dT*dC*dC*dC*dA*dT*dT*dG; antisense) | + (“+” when the suppression rate was at least 30%)
H143 + 5: ggggtttggcttacaggtcc (GGGGTTTGGCTTACAGGTCC; antisense; DNA, all phosphorothioate, methylation of C not given here) | ++ (“++” when the suppression rate was at least 50%)

same assay, conditions: 200 nM; RD cell; corrected by GAPDH

Substance | suppression rate of expression, 200 nM
H119: agccaaacttgtcacagaag (AGCCAAACTTGTCACAGAAG; antisense; DNA, all phosphorothioate, methylation of C not given here) | + (“+” when the suppression rate was at least 30%)
H178: ctccctgaaagccaaacaca (dC*dT*dC*dC*dC*dT*dG*dA*dA*dA*dG*dC*dC*dA*dA*dA*dC*dA*dC*dA; antisense) | + (“+” when the suppression rate was at least 30%)
H183: gtctgcaacccaggttctca (dG*dT*dC*dT*dG*dC*dA*dA*dC*dC*dC*dA*dG*dG*dT*dT*dC*dT*dC*dA; antisense) | ++ (“++” when the suppression rate was at least 50%)
H069: catcccgaaattgtggccca (dC*dA*dT*dC*dC*dC*dG*dA*dA*dA*dT*dT*dG*dT*dG*dG*dC*dC*dC*dA; antisense) | + (“+” when the suppression rate was at least 30%)
H237: gtgtcacgtgtttagtttat (DNA dG*dT*dG*dT*dC*dA*dC*dG*dT*dG*dT*dT*dT*dA*dG*dT*dT*dT*dA*dT; antisense) | + (“+” when the suppression rate was at least 30%)
H140: ggacgctaggtgcacgtggg (GGACGCTAGGTGCACGTGGG; antisense; DNA, all phosphorothioate, methylation of C not given here) | +++ (“+++” when the suppression rate was at least 70%)
H176: ggctctggcctgagatgggg (dG*dG*dC*dT*dC*dT*dG*dG*dC*dC*dT*dG*dA*dG*dA*dT*dG*dG*dG*dG; antisense) | + (“+” when the suppression rate was at least 30%)
H233: agttttgttttctggaaggc (DNA dA*dG*dT*dT*dT*dT*dG*dT*dT*dT*dT*dC*dT*dG*dG*dA*dA*dG*dG*dC; antisense) | + (“+” when the suppression rate was at least 30%)
H068: gctcatgtgccagggtcacg (dG*dC*dT*dC*dA*dT*dG*dT*dG*dC*dC*dA*dG*dG*dG*dT*dC*dA*dC*dG; antisense) | + (“+” when the suppression rate was at least 30%)
H247: aacctttttaatagtatata (DNA dA*dA*dC*dC*dT*dT*dT*dT*dT*dA*dA*dT*dA*dG*dT*dA*dT*dA*dT*dA; antisense) | + (“+” when the suppression rate was at least 30%)
H041: gcttcttcgctgggaagagt (GCTTCTTCGCTGGGAAGAGT; antisense; DNA, all phosphorothioate, methylation of C not given here) | + (“+” when the suppression rate was at least 30%)
H036: acacgtgctgagactgactg (ACACGTGCTGAGACTGACTG; antisense; DNA, all phosphorothioate, methylation of C not given here) | ++ (“++” when the suppression rate was at least 50%)
H091: ttggctgggcagtgagggct (dT*dT*dG*dG*dC*dT*dG*dG*dG*dC*dA*dG*dT*dG*dA*dG*dG*dG*dC*dT; antisense) | ++ (“++” when the suppression rate was at least 50%)
H058: tcatggaggctggtgaatgg (dT*dC*dA*dT*dG*dG*dA*dG*dG*dC*dT*dG*dG*dT*dG*dA*dA*dT*dG*dG; antisense) | ++ (“++” when the suppression rate was at least 50%)
H133: ggtgggtaggaatctggcgg (GGTGGGTAGGAATCTGGCGG; antisense; DNA, all phosphorothioate, methylation of C not given here) | +++ (“+++” when the suppression rate was at least 70%)
H145: ctggccagaggatctgcagg (CTGGCCAGAGGATCTGCAGG; antisense; DNA, all phosphorothioate, methylation of C not given here) | +++ (“+++” when the suppression rate was at least 70%)
H065: ccccagactggtctgccgtg (dC*dC*dC*dC*dA*dG*dA*dC*dT*dG*dG*dT*dC*dT*dG*dC*dC*dG*dT*dG; antisense) | ++ (“++” when the suppression rate was at least 50%)
H148: cggagcccagtctcccattg (dC*dG*dG*dA*dG*dC*dC*dC*dA*dG*dT*dC*dT*dC*dC*dC*dA*dT*dT*dG; antisense) | ++ (“++” when the suppression rate was at least 50%)
H126: cagcagtcgtatcaaggtct (CAGCAGTCGTATCAAGGTCT; antisense; DNA, all phosphorothioate, methylation of C not given here) | + (“+” when the suppression rate was at least 30%)
H070: ctgtccagtgtgtcatgatt (dC*dT*dG*dT*dC*dC*dA*dG*dT*dG*dT*dG*dT*dC*dA*dT*dG*dA*dT*dT; antisense) | + (“+” when the suppression rate was at least 30%)
H046: tgccttcttgcccatgtctg (TGCCTTCTTGCCCATGTCTG; antisense; DNA, all phosphorothioate, methylation of C not given here) | ++ (“++” when the suppression rate was at least 50%)

same assay, conditions: 200 nM; chimeric 2′-methoxy antisense oligonucleotides; RD cell

Substance | suppression rate of expression, 200 nM
H075-OMe2: chimeric antisense oligonucleotide AAGTCcttcctgctgCAACT, uppercase 2′-methoxy nucleotides, lowercase phosphorothioate nucleotides (AAGTCCTTCCTGCTGCAACT; 2'-O-methyl at 1, 2, 3, 4, 5, 16, 17, 18, 19, 20, other sugars, backbone and T or U not given here; lowercase gap nucleotides phosphorothioate) | + (“+” when the suppression rate was at least 30%)
H077-OMe2: chimeric antisense oligonucleotide AAACAggcacaccccCATTC, uppercase 2′-methoxy nucleotides, lowercase phosphorothioate nucleotides (AAACAGGCACACCCCCATTC; 2'-O-methyl at 1, 2, 3, 4, 5, 16, 17, 18, 19, 20, other sugars, backbone and T or U not given here; lowercase gap nucleotides phosphorothioate) | + (“+” when the suppression rate was at least 30%)
